Data published in patent US20140335083A1, “METHODS OF TREATMENT AND PREVENTION OF EYE DISEASES” (GLAXO GROUP LIMITED, priority 2011, published 2014).

Legend:
Assay type in all cases: in vivo
[1] = tested on: laser-induced CNV in C57BL/6 mice; assay: Laser-induced CNV in C57/BL6 mice, fluorescein angiography
Procedure: Adult 12 weeks old female C57BL/6 mice were used to generate the laser-induced CNV model. Mice were anesthetized by intraperitoneal ketamine hydrochloride (25 mg/kg) and xylazine (10 mg/kg) and their pupils dilated by topical tropicamide 1%. Laser-photocoagulation was performed a diode laser (680 nm; 210 mW power, 100 ms duration, 100 […]) under direct vision using a hand-held cover slide as a contact lens and were localized to the 2, 10, and 6 o'clock positions of the posterior pole of the retina in both eyes. These laser settings consistently generate a subretinal gas bubble which strongly correlates with laser-induced rupture of Bruch's membrane and successful induction of CNV. Only lesions in which a bubble is formed were included in the analysis. Fluorescein angiography using a Kowa Genesis small animal fundus camera was conducted at 1 week and 2 weeks following induction of CNV. The size of CNV lesions were quantified by digital image analysis the mean area of hyperfluorescence per lesion during the early phase (90 seconds post fluorescein injection). The pupils were dilated by topical tropicamide 1% and fluorescein sodium 2% administered by intraperitoneal injection (0.2 ml). Eyes were excluded if there was significant cataract or keratopathy that could affect laser energy delivery or angiography.
Adult 12 weeks old female C57BL/6 mice were used to generate the laser-induced CNV (3 CNV lesions per mouse retina) model using laser photocoagulation and puncture of Bruch's membrane.
The statistical analysis conducted here is stringent in that number of observations are related to the number of animals treated whereas in most other studies (conducted in the wider literature) using this laser-induced model each lesion (3 CNV lesions per mouse retina) are regarded as independent observations. […] However it is clear that in the case of orally dosed pazopanib either statistical approach would have yielded a robust effect or as such the effect of CCR3 inhibitor '994 in this model appears weaker than orally dosed pazopanib.

[2] = tested on: spontaneous CNV in JR5558 mice; assay: JR5558 spontaneous CNV model, CNV area and number by fluorescein angiography
Procedure: JR5558 mice develop CNV (on an atrophic background) spontaneously with CNV lesions first emerging approximately 12 days after birth. JR5558 mice were intraperitoneally treated with various amounts of a rat anti-mouse VEGF receptor (VEGFR)-2 blocking antibody (MAB4431; R&D systems) or a purified rat non-immune isotype match control IgG2α antibody (R&D systems) starting from P14 for a total of 10 doses in 11 days and CNV development was analyzed by fluorescein angiography (FA) 24 hours after the last dose on P25. For Mice treated with CCR3 inhibitor '994 they were dosed intraperitoneally or by eye drop with various concentrations of the drug starting at P14 for a total of 12 days and CNV development was analyzed by FA 24 hours after the last dose on P26. To study the combination effects of anti-VEGFR2 antibody and CCR3 inhibitor '994, mice were treated intraperitoneally with each material alone or in combination starting from P14 for a total of 10 doses in 11 days and CNV development was analyzed by FA 24 hours after the last dose on P25. Experiments exploring the effects of VEGF-A and CCR3 antagonists on vascular permeability from established CNV lesions, JR5558 mice utilised dosing for only two days after the development of CNV lesions and were treated with various amounts of the VEGFR-2 antibody or CCR3 inhibitor '994, or in combinations on P24 and P25. Fluorescein Angiography (FA) was performed on P26.
The pupils of mice were dilated with 2.5% tropicamide (Bausch & Lomb, Rochester, N.Y.) and 0.2 ml of 2% fluorescein sodium (Bausch & Lomb) diluted in water was administered by intraperitoneal injection. A Kowa Genesis-Df fundus camera (Kowa, Tokyo, Japan) was used to obtain fluorescein angiograms at early (90 seconds after fluorescein injection) and late (7 min) phases of dye transit. At the early phase, the vasculature of CNV tissue is clearly defined by the intravascular fluorescein dye. At the late phase, extravascular fluorescein is evident as patches of hyperfluorescence. To quantify the CNV area, Image J program was used to determine the size of each of the hyperfluorescence CNV in each eye with FA images from the early phase. Permeability of each CNV was determined by subtracting the hyper-fluorescent area of early phase (90 second post fluorescein injection) from late phase (7 minutes post fluorescein injection) FA images by using Image J.
JR5558 mice are a strain of mice with an unidentified genetic defect which causes them to develop spontaneous CNV in both retinae with a predictable time course with the first lesions initiating at about post-natal day 12. As such treatment with CCR3 inhibitor '994 was initiated at day 12 and continued for 12 days at which point animals were examined by retinal fluorescence angiography to quantitate the total CNV lesion load and the total number of CNV lesions present in the retinae. Treatment of animals with CCR3 inhibitor '994 led to suppression of both total lesion area (see, FIG. 3, Table 3) and in the total number of CNV lesions present in the retinae (see, FIG. 3, Table 4) when dosed i.p. at either 8 mg/kg QD or 30 mg/kg QD but not when the dose was 2 mg/kg QD.

[3] = Exposure after oral versus i.p. dosing in mice; details: mouse; oral v i.p.
[4] = 2 mg/kg i.p. QD v Vehicle, 12 days P14-P26, fluorescence angiography
[5] = 8 mg/kg i.p. QD v Vehicle, 12 days P14-P26, fluorescence angiography
[6] = 30 mg/kg i.p. QD v Vehicle, 12 days P14-P26, fluorescence angiography
[7] = eye drop study, 1 mg/ml, 5 ul eye drop to each eye BID v Vehicle, P14-P26
[8] = eye drop study, 8 mg/kg i.p. BID comparator v Vehicle, P14-P26
[9] = eye drop study, 10 mg/ml, 5 ul eye drop to each eye BID v Vehicle, P14-P26

reduction in exposure, oral dosing as compared to i.p dosing [3]: 5 fold
Structure (SMILES): NC(=O)c1ccc(CNC(=O)NC[C@H]2CN(Cc3ccc(Cl)c(Cl)c3)CCO2)cc1 [CCR3 inhibitor '994, 4-[[[[[[(2s)-4-[(3,4-dichlorophenyl)methyl]-2-morpholinyl]methyl]-amino]carbonyl]-amino]methyl]benzamide]
Ratio of mean lesion sizes ([1]; Table 1 study, 8 mg/kg po QD v Vehicle, Week 1): 0.82
Ratio of mean lesion sizes ([1]; Table 1 study, 8 mg/kg po QD v Vehicle, Week 2): 0.99
Ratio of mean lesion sizes ([1]; Table 1 study, 30 mg/kg '994 v 20 mg/kg Pazopanib, Week 1): 1.47
Ratio of mean lesion sizes ([1]; Table 1 study, 30 mg/kg '994 v 20 mg/kg Pazopanib, Week 2): 2.03
Ratio of mean lesion sizes ([1]; Table 1 study, 30 mg/kg po QD v Vehicle, Week 1): 0.70
Ratio of mean lesion sizes ([1]; Table 1 study, 30 mg/kg po QD v Vehicle, Week 2): 0.78
Ratio of mean lesion sizes ([1]; Table 2 (second) study, 2 mg/kg po QD v Vehicle, Week 1): 0.93
Ratio of mean lesion sizes ([1]; Table 2 (second) study, 2 mg/kg po QD v Vehicle, Week 2): 0.83
Ratio of mean lesion sizes ([1]; Table 2 (second) study, 8 mg/kg BID po v Vehicle, Week 1): 0.80
Ratio of mean lesion sizes ([1]; Table 2 (second) study, 8 mg/kg BID po v Vehicle, Week 2): 0.65
Ratio of mean lesion sizes ([1]; Table 2 (second) study, 8 mg/kg po QD v Vehicle, Week 1): 0.81
Ratio of mean lesion sizes ([1]; Table 2 (second) study, 8 mg/kg po QD v Vehicle, Week 2): 0.66
Ratio of mean lesion sizes ([1]; Table 2 (second) study, 30 mg/kg '994 v 20 mg/kg Pazopanib, Week 1): 2.05
Ratio of mean lesion sizes ([1]; Table 2 (second) study, 30 mg/kg '994 v 20 mg/kg Pazopanib, Week 2): 2.16
Ratio of mean lesion sizes ([1]; Table 2 (second) study, 30 mg/kg po QD v Vehicle, Week 1): 0.62
Ratio of mean lesion sizes ([1]; Table 2 (second) study, 30 mg/kg po QD v Vehicle, Week 2): 0.56
Difference in mean total CNV area per eye [2, 4]: −0.0065
Difference in mean total number of CNV lesions per eye [2, 4]: −1.65
Difference in mean total CNV area per eye [2, 5]: −0.0171
Difference in mean total number of CNV lesions per eye [2, 5]: −5.03
Difference in mean total CNV area per eye [2, 6]: −0.0264
Difference in mean total number of CNV lesions per eye [2, 6]: −5.20
Difference in mean total CNV area per eye ([2]; BID study (Table 5), 8 mg/kg BID v Vehicle, 12 days P14-P26, fluorescence angiography): −0.0214
Difference in mean number of CNV lesions per eye ([2]; BID study (Table 6), 8 mg/kg BID v Vehicle, 12 days P14-P26, fluorescence angiography): −4.63
effect on CNV lesion area and total occurring CNV lesions ([2]; combination study, 30 mg/kg QD systemic, compared to vehicle): significant reduction in both CNV lesion area and total occurring CNV lesions
Difference in mean total CNV area per eye [2, 7]: −5442.63
Difference in mean total number of CNV lesions per eye [2, 7]: −2.25
Difference in mean total CNV area per eye [2, 8]: −9853.26
Difference in mean total number of CNV lesions per eye [2, 8]: 4.95
Difference in mean total CNV area per eye [2, 9]: −8047.55
Difference in mean total number of CNV lesions per eye [2, 9]: −3.96
